Where a SMILES comes first, the peptide text is derived from it. Where no end group is shown, it is not given here.
How the values were obtained:
[1] = system: nuclear transport of NLS-NES shuttle proteins; conditions: synthetic peptide added to HeLa cells in the culture media; ref Vanneste et al., 2019; cited from earlier work
Source text: (§1) Additional studies have since investigated mechanisms by which individual DPRs may disrupt the nuclear transport apparatus. […] PR20 was previously shown by STE ...

[2] = molecular target: T1, importin β-mediated nuclear import of Rango (Homo sapiens, UniProt Q14974); assay: Permeabilized cell nuclear import assay, Rango, mouse primary cortical neurons; format: cell-based; conditions: importin β small molecule inhibitor control
Source text: All animal procedures were approved by the Johns Hopkins Animal Care and Use Committee. Timed pregnant C57BL/6J females (Jackson Laboratory, Bar Harbor, ME) were sacrificed by cervical dislocation at E16, cortex dissociated, and cells plated at 50,000/well on poly-D-lysine/laminin-coated, optical glass-bottom 96-well plates. Growth medium consisted of Neurobasal supplemented with B27, Glutamax, and penicillin/streptomycin (Gibco/ThermoFisher). At 5–7 days in vitro, neurons were rinsed in prewarmed PBS and permeabilized for 4 min. at 37° in a hypotonic solution containing […] Tris-HCl pH 7.5 (to cause osmotic swelling) and 50–150 mg/ml BSA (for molecular crowding/mechanical support). Following permeabilization, cells were placed on ice and rinsed 2 × 5 min in transport buffer (TRB, 20 mM HEPES, 110 mM KOAc, 2 mM Mg(OAc)2, 5 mM NaOAc, 0.5 mM EGTA, 250 mM sucrose, pH 7.3, with protease inhibitor cocktail). All rinse and assay buffers were supplemented with 50 mg/mL BSA. The optimal hypotonic buffer and BSA concentration varied by batch, and was optimized prior to each set of assays for ability to permeabilize the majority of plasma membranes while maintaining nuclear exclusion of a 70 kD fluorescent dextran (ThermoFisher).
Concentrated whole cell lysates were prepared from HEK293T cells (ATCC, mycoplasma negative and validated by STR profiling), grown in 150 mm dishes and sonicated on ice in 1X TRB in the presence of protease inhibitor cocktail (Roche). The lysates were clarified (15 min, 14000 g, 4C), snap frozen in liquid nitrogen, and stored in single use aliquots at −80C. Total HEK cell RNA was extracted using miRNEasy kits according to the manufacturers’ protocol, with DNase digestion (Qiagen). RNA concentration was measured by Nanodrop (ThermoFisher), and all 260/280 ratios were verified to be > 2.0. Energy regeneration (ER) mix consisted of 100 µM ATP, 100 µM GTP, 4 mM creatine phosphate, and 20 U/mL creatine kinase (Roche).
(§2) Reaction mixes consisting of 2.5 mg/ml lysate, ER, fluorescent cargo (200 nM Rango and YFP-M9-CFP, 500 nM GST-GFP-NLS), Hoechst, DPRs, RNA, or inhibitors (100 µM importazole (IPZ, Millipore Sigma); 0.8 mg/mL wheat germ agglutinin (WGA, Millipore Sigma) were assembled on ice during cell permeabilization. DPRs or inhibitors were allowed to equilibrate in cell lysate for at least 30 min prior to initiation of transport. Every plate included: (1) Cargo alone: fluorescent cargo, but no ER or lysate, (2) Untreated controls: fluorescent cargo, ER, and lysate, and (3) Inhibitor: fluorescent cargo, ER, lysate, and IPZ (Rango and GST-GFP-NLS reactions) or WGA (YFP-M9-CFP). Preassembled transport reactions were then transferred onto permeabilized cells via multichannel pipette, and allowed to proceed at room temperature for 2 hr (Rango, YFP-M9-CFP) or 4 hr (GST-GFP-NLS). Cells were fixed in 4% paraformaldehyde/PBS, rinsed 2x with PBS, and transferred to 50% glycerol/PBS for immediate imaging.
For a subset of neuron transport assays, transport was monitored live via time lapse imaging every 5 min for 30 min. In a subset of HeLa assays, transport reactions were centrifuged before use at 14,000g × 15 min to separate soluble and insoluble fractions. In another variation, the transport lysate + DPR and ER mix was allowed to preincubate on the permeabilized HeLa cells for 1 hour prior to initiation of transport, rinsed 1x with TRB, and transport initiated with fresh lysate, cargo, and ER.
Multiple non-overlapping fields per well (4 for time-lapse imaging, 9-16 for fixed imaging), were captured at 40x on an ImageXpress Micro XLS high-content microscope (Molecular Devices, San Jose, CA), and the ratio of nuclear to cytoplasmic fluorescence intensity was calculated using the MetaXpress automated translocation-enhanced module. Raw data were filtered to exclude autofluorescence and the mean N/C ratio from wells without ER or cell lysate was subtracted from all values.

[3] = system: Nup54 and 98 FG-domain polymers; conditions: ref Shi et al., 2017; cited from earlier work
Source text: The rate of passive transport through the NPC is governed by the FG-Nup barrier ([Mohr et al., 2009]; [Timney et al., 2016]; [Frey et al., 2018]), in addition to local concentrations of importin β and RanGTP ([Ma et al., 2012]; [Kapinos et al., 2017]). R-DPR/FG-domain interactions are predicted based on the propensity of arginines to undergo cation-pi interactions with aromatic phenylalanine rings (reviewed by [Gallivan and Dougherty, 1999]; [Banani et al., 2017]). Indeed, previous interactome studies predicted R-DPR interactions with FG-Nups including Nup54, 62, 98, 153, and 214 ([Lin et al., ...

[4] = system: nuclear import of NLS-BSA; conditions: permeabilized HeLa cells; ref Shi et al., 2017; cited from earlier work
Source text: as §1

[5] = system: proteasome; conditions: ref Gupta et al., 2017; cited from earlier work
Source text: Throughout this study, we observed marked differences in the behavior of GR and PR. […] Based on their divergent molecular properties, the differing behavior of GR and PR is not surprising. On one hand, bot ...

[6] = molecular target: T1, importin β-mediated nuclear import of Rango; assay: Permeabilized cell nuclear import assay, Rango, HeLa; format: cell-based
[7] = molecular target: T1, importin β-mediated nuclear import of Rango; assay: Fractionated Rango transport assay (aggregates present or supernatant only), HeLa; format: cell-based; conditions: with AF647-labeled importin β
Method: A single cell-derived clone of HeLa cells (ATCC, Manassas, VA; mycoplasma negative and validated by STR profiling) were maintained in OptiMEM (Gibco/ThermoFisher) with 4% FBS and plated on uncoated optical glass-bottom 96 well plates, at appropriate densities to reach 70–90% confluence on the day of the transport assay. To permeabilize, cells were rinsed for 2 min in ice-cold PBS, and permeabilized on ice for 10 min in 15–30 µg/mL digitonin (Calbiochem, San Diego, CA) in permeabilization buffer (PRB, 20 mM HEPES, 110 mM KOAc, 5 mM Mg(OAc)2, 0.5 mM EGTA, 250 mM sucrose, pH 7.5, with protease inhibitor cocktail). Following permeabilization, cells were placed on ice and rinsed 3 × 5 min in transport buffer (TRB, 20 mM HEPES, 110 mM KOAc, 2 mM Mg(OAc)2, 5 mM NaOAc, 0.5 mM EGTA, 250 mM sucrose, pH 7.3, with protease inhibitor cocktail). The optimal digitonin concentration varied by cell density and passage number, and was optimized prior to each set of assays for the ability to permeabilize the majority of plasma membranes while maintaining nuclear exclusion of a 70 kD fluorescent dextran (ThermoFisher).
as §2
For a subset of neuron transport assays, transport was monitored live via time lapse imaging every 5 min for 30 min. […]
Multiple non-overlapping fields per well (4 for time-lapse imaging, 9-16 for fixed imaging), were captured at 40x on an ImageXpress Micro XLS high-content microscope (Molecular Devices, San Jose, CA), and the ratio of nuclear to cytoplasmic fluorescence intensity was calculated using the MetaXpress automated translocation-enhanced module. […] Resulting N/C ratios were expressed as % untreated, to permit comparisons across biological replicates.

T1 sequence (Q14974 whole entry): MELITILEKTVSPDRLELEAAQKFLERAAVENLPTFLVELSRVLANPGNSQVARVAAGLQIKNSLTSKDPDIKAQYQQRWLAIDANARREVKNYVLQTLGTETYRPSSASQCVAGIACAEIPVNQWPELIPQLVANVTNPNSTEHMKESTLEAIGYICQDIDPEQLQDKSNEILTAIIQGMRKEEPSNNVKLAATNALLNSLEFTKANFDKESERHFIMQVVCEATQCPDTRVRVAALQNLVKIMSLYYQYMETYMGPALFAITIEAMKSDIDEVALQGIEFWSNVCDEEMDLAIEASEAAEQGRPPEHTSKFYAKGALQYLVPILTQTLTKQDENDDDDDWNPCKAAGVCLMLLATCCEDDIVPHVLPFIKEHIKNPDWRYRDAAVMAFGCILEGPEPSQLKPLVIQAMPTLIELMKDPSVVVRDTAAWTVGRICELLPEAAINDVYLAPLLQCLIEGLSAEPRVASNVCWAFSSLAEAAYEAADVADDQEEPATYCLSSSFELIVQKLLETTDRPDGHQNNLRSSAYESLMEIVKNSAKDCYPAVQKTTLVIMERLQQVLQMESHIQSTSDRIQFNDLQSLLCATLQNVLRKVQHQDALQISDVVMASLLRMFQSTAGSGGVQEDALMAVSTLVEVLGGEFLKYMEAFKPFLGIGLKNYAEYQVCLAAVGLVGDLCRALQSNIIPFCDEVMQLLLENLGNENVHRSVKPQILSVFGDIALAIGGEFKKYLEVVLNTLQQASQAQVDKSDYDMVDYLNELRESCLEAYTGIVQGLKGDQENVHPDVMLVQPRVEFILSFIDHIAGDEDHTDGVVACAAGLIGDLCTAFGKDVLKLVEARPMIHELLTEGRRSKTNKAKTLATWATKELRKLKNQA

N=C(N)NCCC[C@H](NC(=O)CNC(=O)[C@H](CCCNC(=N)N)NC(=O)CNC(=O)[C@H](CCCNC(=N)N)NC(=O)CNC(=O)[C@H](CCCNC(=N)N)NC(=O)CNC(=O)[C@H](CCCNC(=N)N)NC(=O)CNC(=O)[C@H](CCCNC(=N)N)NC(=O)CNC(=O)[C@H](CCCNC(=N)N)NC(=O)CNC(=O)[C@H](CCCNC(=N)N)NC(=O)CNC(=O)[C@H](CCCNC(=N)N)NC(=O)CNC(=O)[C@H](CCCNC(=N)N)NC(=O)CNC(=O)[C@H](CCCNC(=N)N)NC(=O)CNC(=O)[C@H](CCCNC(=N)N)NC(=O)CNC(=O)[C@H](CCCNC(=N)N)NC(=O)CNC(=O)[C@H](CCCNC(=N)N)NC(=O)CNC(=O)[C@H](CCCNC(=N)N)NC(=O)CNC(=O)[C@H](CCCNC(=N)N)NC(=O)CNC(=O)[C@H](CCCNC(=N)N)NC(=O)CNC(=O)[C@H](CCCNC(=N)N)NC(=O)CNC(=O)[C@H](CCCNC(=N)N)NC(=O)CNC(=O)[C@H](CCCNC(=N)N)NC(=O)CN)C(=O)O [GR20]
Effect on nuclear transport of fluorescent NLS-NES shuttle proteins [1]: unable to impede nuclear transport

CC(Nc1nc(N2CCCC2)nc2ccccc12)c1ccccc1 (stereo not shown) [importazole, Importazole, reference compound]
Effect on Rango import in permeabilized neurons [2]: can be inhibited

N=C(N)NCCC[C@H](NC(=O)[C@@H]1CCCN1C(=O)[C@H](CCCNC(=N)N)NC(=O)[C@@H]1CCCN1C(=O)[C@H](CCCNC(=N)N)NC(=O)[C@@H]1CCCN1C(=O)[C@H](CCCNC(=N)N)NC(=O)[C@@H]1CCCN1C(=O)[C@H](CCCNC(=N)N)NC(=O)[C@@H]1CCCN1C(=O)[C@H](CCCNC(=N)N)NC(=O)[C@@H]1CCCN1C(=O)[C@H](CCCNC(=N)N)NC(=O)[C@@H]1CCCN1C(=O)[C@H](CCCNC(=N)N)NC(=O)[C@@H]1CCCN1C(=O)[C@H](CCCNC(=N)N)NC(=O)[C@@H]1CCCN1C(=O)[C@H](CCCNC(=N)N)NC(=O)[C@@H]1CCCN1C(=O)[C@H](CCCNC(=N)N)NC(=O)[C@@H]1CCCN1C(=O)[C@H](CCCNC(=N)N)NC(=O)[C@@H]1CCCN1C(=O)[C@H](CCCNC(=N)N)NC(=O)[C@@H]1CCCN1C(=O)[C@H](CCCNC(=N)N)NC(=O)[C@@H]1CCCN1C(=O)[C@H](CCCNC(=N)N)NC(=O)[C@@H]1CCCN1C(=O)[C@H](CCCNC(=N)N)NC(=O)[C@@H]1CCCN1C(=O)[C@H](CCCNC(=N)N)NC(=O)[C@@H]1CCCN1C(=O)[C@H](CCCNC(=N)N)NC(=O)[C@@H]1CCCN1C(=O)[C@H](CCCNC(=N)N)NC(=O)[C@@H]1CCCN1C(=O)[C@H](CCCNC(=N)N)NC(=O)[C@@H]1CCCN1)C(=O)O [PR20] (H-PRPRPRPRPRPRPRPRPRPRPRPRPRPRPRPRPRPRPRPR-OH; N-terminus and C-terminus assumed)
Binding to FG-domain polymers [3]: bind and stabilize Nup54 and 98 FG-domain polymers
Effect on nuclear transport of fluorescent NLS-NES shuttle proteins [1]: unable to impede nuclear transport
Effect on nuclear import of NLS-BSA [4]: impeded nuclear import of NLS-BSA
Inhibition of proteosomal degradation [5]: shown to inhibit proteosomal degradation

OCCCCCCO [1,6-hexanediol]
Reversal of mild nuclear import inhibition ([6]; 25 µM PR10): neither 1,6-hexanediol nor exogenous importin β could reverse mild nuclear import inhibition
Effect on Rango import at baseline ([6]; no DPR): caused dose-dependent inhibition at baseline

AF488-PR10: PR10 labeled with Alexa Fluor 488 C5-maleimide (PRPRPRPRPRPRPRPRPRPRKC(Alexa Fluor 488 C5‑maleimide))
Location of AF488-labeled DPR in fractionated transport reactions (confocal) [7]: remained in the supernatant and was present at the nuclear envelope

AF488-GR10: GR10 labeled with Alexa Fluor 488 C5-maleimide (GRGRGRGRGRGRGRGRGRGRKC(Alexa Fluor 488 C5‑maleimide))
Location of AF488-labeled DPR in fractionated transport reactions (confocal) [7]: fully sedimented into the pellet

— PMC7051184, “C9orf72 arginine-rich dipeptide repeat proteins disrupt karyopherin-mediated nuclear import” (eLife, 2020)
